Where two headings read alike, the source gives them in different places. Blank lines part the entries; values can stand above or below the compound they belong to.
Experiments:
[1] = target: T1, motilin receptors located on the colon of mature rabbits (Oryctolagus cuniculus, UniProt G1T803); experiment: competition with radiolabeled (125I) porcine motilin for the motilin receptors of rabbit colon; format: binding; conditions: for IC50: rabbit colon, 125I motilin
T1 construct: The colon from mature New Zealand rabbits was removed, dissected free from the mucosa and serosa layers, and diced into small pieces; from tissue; host or cells: colon smooth muscle of mature New Zealand rabbits, crude membrane homogenate
Procedure: The compounds of the invention were tested for their ability to compete with radiolabeled motilin (porcine) for the motilin receptors located on the colon of mature rabbits. The colon from mature New Zealand rabbits was removed, dissected free from the mucosa and serosa layers, and diced into small pieces. […] The homogenate was centrifuged at 1000×g for 15 min. and the supernatant discarded. The pellet was washed twice before being suspended in homogenizing buffer. This crude homogenate is then passed first through a 19 gauge needle then a 23 gauge needle to further suspend the material and stored as -80° C. […] After 30 min, at 30° C., the material was cooled on ice and centrifuged at 13,000×g for 1 minute. The pellet was washed with 1 mL 0.9% saline and centrifuged at 13,000×g for 15 seconds. The pellet was washed again with cold saline and the supernatant was removed. The pellet was counted in the gamma counter to determine the percentage of […] motilin and thereby the percent inhibition of the test compound. IC50s were determined for some compounds by standard techniques.

[2] = tested on: rabbit duodenum smooth muscle (motilin and erythromycin induced contractions); experiment: inhibition of motilin (porcine) induced contractions in rabbit duodenum smooth muscle; format: cell-based; conditions: for IC50: rabbit duodenum strips, porcine motilin; for inhibition at 2 µM: @ 2 μM (2.0 μM)
Procedure: Select compounds of the invention were evaluated for their ability to inhibit motilin and erythromycin induced contractions in the rabbit duodenum smooth muscle. Rabbits were fasted 24-48 h and euthanized. The venral midline incision was made approximately 7.5 cm above the umbilicus upto the xyphoid process, exposing the upper peritoneal cavity. The first 8 cm. of the duodenum starting at the pyloric valve was quickly removed and placed in Krebs solution containing NaCl, ([…]), KCl (4.7 mM), MgSO4 *7 H2 O (1.2 mM), CaCl2 *2 H2 O (2.4 mM), KH2 PO4 (1 mM), D-glucose (10 mM), and NaHCO3 (24 mM). The lumen was flushed with Krebs and excess tissue was removed. The tissue was cut lengthwise, splayed open with the longitudinal muscle layer facing up, and the longitudinal muscle layer was released away from the circular muscle and cut into 3×30 mm strips. A pre-tied 4-0 silk ligature with a loop was placed at the middle of the strip and the strip was folded over the loop so the strip was half its original length. The tissues were mounted in a 10 mL tissue bath (Radnotti Glass Technology, Inc., Monrovia, Calif.) containing Krebs solution gassed with 95% O2 5% CO2 at 37° C. […] The tissues were allowed to equilibrate for 60-90 min with 2-3 wash cycles. The tissues were equilibrated with two initial contractions induced by a concentration of acetylcholine (1×10^-4 M) that produced a maximal contraction (0.1 mM), with the highest taken as 100% maximall contraction of that tissue. Base line and response levels are expressed as grams tension developed and as a percent of the response to acetylcholine. The test compounds were dissolved in DMSO (2 mM/100% DMSO) and applied to the prepared strips 5-15 minutes prior to the addition of porcine motilin. After addition, the tension is constantly monitored over 5 min and the maximum tension is recorded. The percent contraction was measured at four ascending concentrations and where appropriate IC50s were determined.

[3] = Oryctolagus cuniculus, read-out: IC50

T1 sequence (G1T803 1-400): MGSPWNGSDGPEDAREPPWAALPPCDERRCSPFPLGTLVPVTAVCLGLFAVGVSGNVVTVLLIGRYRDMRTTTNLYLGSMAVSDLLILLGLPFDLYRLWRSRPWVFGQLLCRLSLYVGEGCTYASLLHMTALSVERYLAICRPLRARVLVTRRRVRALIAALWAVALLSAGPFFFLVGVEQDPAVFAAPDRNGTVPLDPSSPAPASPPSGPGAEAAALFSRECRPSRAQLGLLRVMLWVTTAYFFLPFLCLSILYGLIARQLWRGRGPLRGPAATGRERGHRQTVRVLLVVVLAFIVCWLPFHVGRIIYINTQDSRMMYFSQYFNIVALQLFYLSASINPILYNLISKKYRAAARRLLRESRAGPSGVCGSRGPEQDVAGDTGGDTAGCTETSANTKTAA

IC50 ([1]; read-out: IC50): 45 nM
IC50 ([2]; read-out: IC50): 287 nM
SMILES: O=C(Nc1ccccc1)N(CC1=CC(Cc2ccccc2)(NC(=O)C(Cl)(Cl)Cl)CC1)c1cccc(OCCN2CCOCC2)c1 (stereo not drawn) [Compound 7, 3-Benzyl-3-trichloroacetylamino-1-(N-phenylaminocarbonyl)-N-[(3-(2-morpholinoethoxy)phenyl)amino]methylcyclopentene]

IC50 ([1]; read-out: IC50): 20 nM
IC50 ([2]; read-out: IC50): 280 nM
SMILES: O=C(Nc1ccccc1)N(CC1=CC(Cc2ccccc2)(NC(=O)C(Cl)(Cl)Cl)CC1)c1cccc(OCCN2CCOCC2)c1 (stereo not drawn) [Compound 8]

IC50 ([1]; read-out: IC50): > 300 nM
IC50 ([2]; read-out: IC50): 890 nM
SMILES: O=C(Nc1ccccc1)N(CC1=CC(Cc2ccccc2)(NC(=O)C(Cl)(Cl)Cl)CC1)c1cccc(OCCN2CCOCC2)c1 (stereo not drawn) [Compound 9, 3-Benzyl-3-trichloroacetylamino-1-(N-phenylaminocarbonyl)-N-[(3-(2-morpholinoethoxy)phenyl)amino]methylcyclopentene]

IC50 ([1]; read-out: IC50 (unit inferred)): 300 nM
IC50 [2, 3]: 393 nM
SMILES: O=C(c1ccccc1)N(CC1=CC(Cc2ccccc2)(NC(=O)C(Cl)(Cl)Cl)CC1)c1cccc(OCCN2CCOCC2)c1 (stereo not drawn) [Compound 10, 3-Benzyl-3-trichloroacetylamino-1-(N-phenylcarbonyl)-N-[(3-(2-morpholinoethoxy)phenyl)amino]methylcyclopentene]

inhibition at 10 µM [1]: 81%
SMILES: CCN(CC)CCN(CC1=CC(Cc2ccccc2)(NC(=O)C(Cl)(Cl)Cl)CC1)c1cccc(O)c1 (stereo not drawn) [Compound 50]
inhibition at 20 µM ([2]; Oryctolagus cuniculus, @ 20 μM): 98%

SMILES: CCN(CC)CCOc1cccc(N(CCN(CC)CC)CC2=CC(Cc3ccccc3)(NC(=O)C(Cl)(Cl)Cl)CC2)c1 (stereo not drawn) [Compound 51]
inhibition at 5 µM ([2]; Oryctolagus cuniculus): 74%

IC50 ([1]; read-out: IC50 (unit inferred)): 600 nM
SMILES: CCN(CC)CCN(CC1=CC(Cc2ccccc2)(NC(=O)C(Cl)(Cl)Cl)CC1)c1cccc(OCCN2CCCCC2)c1 (stereo not drawn) [Compound 52]
inhibition at 10 µM ([2]; Oryctolagus cuniculus): 70%

IC50 ([1]; read-out: IC50 (unit inferred)): 300 nM
IC50 [2, 3]: 3930 nM
SMILES: CCN(CC)CCN(CC1=CC(Cc2ccccc2)(NC(=O)C(Cl)(Cl)Cl)CC1)c1cccc(OCCN2CCOCC2)c1 (stereo not drawn) [Compound 53]

IC50 ([1]; read-out: IC50 (unit inferred)): 900 nM
SMILES: CCN(CC)CCN(CC1=CC(Cc2ccccc2)(NC(=O)C(Cl)(Cl)Cl)CC1)c1cccc(OCCCN2CCCCC2)c1 (stereo not drawn) [Compound 54]
inhibition at 5 µM ([2]; Oryctolagus cuniculus): 24%

IC50 ([1]; read-out: IC50 (unit inferred)): 900 nM
SMILES: CCN(CC)CCN(CC1=CC(Cc2ccccc2)(NC(=O)C(Cl)(Cl)Cl)CC1)c1cccc(OCCN2CCCC2)c1 (stereo not drawn) [Compound 55]
inhibition at 2 µM ([2]; Oryctolagus cuniculus): 43%

IC50 ([1]; read-out: IC50 (unit inferred)): 1500 nM
SMILES: CN(C)CCSc1ccc(NCC2=CC(Cc3ccccc3)(NC(=O)C(Cl)(Cl)Cl)CC2)cc1 (stereo not drawn) [Compound 56]
inhibition at 2 µM ([2]; Oryctolagus cuniculus): 24%

IC50 ([1]; read-out: IC50 (unit inferred)): 700 nM
IC50 ([2]; Oryctolagus cuniculus, read-out: IC50 (unit inferred)): 1060 nM
SMILES: O=C(NC1(Cc2ccccc2)C=C(CN(CCN2CCOCC2)Cc2cccc(OCCN3CCOCC3)c2)CC1)C(Cl)(Cl)Cl (stereo not drawn) [Compound 57]

IC50 ([1]; read-out: IC50 (unit inferred)): 1800 nM
SMILES: CCN(CC)CCSc1ccc(NCC2=CC(Cc3ccccc3)(NC(=O)C(Cl)(Cl)Cl)CC2)cc1 (stereo not drawn) [Compound 58]
inhibition at 2 µM ([2]; Oryctolagus cuniculus): 44%

IC50 ([1]; read-out: IC50): 52 nM
SMILES: O=C(c1ccc(F)cc1)N(CC1=CC(Cc2ccccc2)(NC(=O)C(Cl)(Cl)Cl)CC1)c1cccc(OCCN2CCOCC2)c1 (stereo not drawn) [Compound 59]
inhibition at 3 µM ([2]; Oryctolagus cuniculus, @ 3.0 μM): 54%

IC50 ([1]; read-out: IC50): 90 nM
SMILES: COc1ccc(C(=O)N(CC2=CC(Cc3ccccc3)(NC(=O)C(Cl)(Cl)Cl)CC2)c2cccc(OCCN3CCOCC3)c2)cc1 (stereo not drawn) [Compound 60]
inhibition at 10 µM ([2]; Oryctolagus cuniculus): 49%

inhibition at 0.05 µM ([1]; @ 0.05 μM): 64%
SMILES: O=C(c1ccc(Br)cc1)N(CC1=CC(Cc2ccccc2)(NC(=O)C(Cl)(Cl)Cl)CC1)c1cccc(OCCN2CCOCC2)c1 (stereo not drawn) [Compound 61]
inhibition at 1 µM ([2]; Oryctolagus cuniculus): 63%

IC50 ([1]; read-out: IC50): 50 nM
SMILES: O=C(c1ccc(F)c(F)c1)N(CC1=CC(Cc2ccccc2)(NC(=O)C(Cl)(Cl)Cl)CC1)c1cccc(OCCN2CCOCC2)c1 (stereo not drawn) [Compound 62]
inhibition at 1 µM ([2]; Oryctolagus cuniculus): 65%

IC50 ([1]; read-out: IC50): 37 nM
SMILES: O=C(Nc1cccc(F)c1)N(CC1=CC(Cc2ccccc2)(NC(=O)C(Cl)(Cl)Cl)CC1)c1cccc(OCCN2CCOCC2)c1 (stereo not drawn) [Compound 63]
inhibition at 1 µM ([2]; Oryctolagus cuniculus): 63.8%

inhibition at 1 µM [1]: 65%
SMILES: O=C(c1sccc1Br)N(CC1=CC(Cc2ccccc2)(NC(=O)C(Cl)(Cl)Cl)CC1)c1cccc(OCCN2CCOCC2)c1 (stereo not drawn) [Compound 115]

SMILES: O=C(c1ccc([N+](=O)[O-])cc1)N(CC1=CC(Cc2ccccc2)(NC(=O)C(Cl)(Cl)Cl)CC1)c1cccc(OCCN2CCOCC2)c1 (stereo not drawn) [Compound 116]
inhibition at 0.1 µM [1]: 69%

SMILES: O=C(C(c1ccccc1)c1ccccc1)N(CC1=CC(Cc2ccccc2)(NC(=O)C(Cl)(Cl)Cl)CC1)c1cccc(OCCN2CCOCC2)c1 (stereo not drawn) [Compound 117]
inhibition at 1 µM [1]: 42%

SMILES: O=C(Oc1ccccc1)N(CC1=CC(Cc2ccccc2)(NC(=O)C(Cl)(Cl)Cl)CC1)c1cccc(OCCN2CCOCC2)c1 (stereo not drawn) [Compound 118]
inhibition at 1 µM [1]: 51%

SMILES: O=C(NC1CCCCC1)N(CC1=CC(Cc2ccccc2)(NC(=O)C(Cl)(Cl)Cl)CC1)c1cccc(OCCN2CCOCC2)c1 (stereo not drawn) [Compound 119]
inhibition at 1 µM [1]: 56%

IC50 ([1]; read-out: IC50): 10 nM
SMILES: O=C(Nc1ccc(F)cc1)N(CC1=CC(Cc2cccc(Cl)c2)(NC(=O)C(Cl)(Cl)Cl)CC1)c1cccc(OCCN2CCOCC2)c1 (stereo not drawn) [Compound 120]

IC50 ([1]; read-out: IC50): 30 nM
SMILES: O=C(c1ccc(F)cc1)N(CC1=CC(Cc2cccc(Cl)c2)(NC(=O)C(Cl)(Cl)Cl)CC1)c1cccc(OCCN2CCOCC2)c1 (stereo not drawn) [Compound 121]

inhibition at 1 µM [1]: 77%
SMILES: O=C(c1ccc2c(c1)OCO2)N(CC1=CC(Cc2ccccc2)(NC(=O)C(Cl)(Cl)Cl)CC1)c1cccc(OCCN2CCOCC2)c1 (stereo not drawn) [Compound 122]

inhibition at 1 µM [1]: 51%
SMILES: CC(C)C1(NC(=O)C(Cl)(Cl)Cl)C=C(CN(C(=O)Nc2ccccc2)c2cccc(OCCN3CCOCC3)c2)CC1 (stereo not drawn) [Compound 123]

inhibition at 0.1 µM [1]: 40%
SMILES: O=C(c1cccc2ccccc12)N(CC1=CC(Cc2ccccc2)(NC(=O)C(Cl)(Cl)Cl)CC1)c1cccc(OCCN2CCOCC2)c1 (stereo not drawn) [Compound 124]

inhibition at 0.04 µM [1]: 43%
SMILES: O=C(c1ccc(F)cc1)N(CC1=CC(Cc2ccc(F)cc2)(NC(=O)C(Cl)(Cl)Cl)CC1)c1cccc(OCCN2CCOCC2)c1 (stereo not drawn) [Compound 125]

inhibition at 0.04 µM [1]: 44%
SMILES: O=C(c1cccc(F)c1)N(CC1=CC(Cc2ccc(F)cc2)(NC(=O)C(Cl)(Cl)Cl)CC1)c1cccc(OCCN2CCOCC2)c1 (stereo not drawn) [Compound 126]

inhibition at 0.1 µM [1]: 33%
SMILES: O=C(Nc1ccccc1)N(CC1=CC(NC(=O)C(Cl)(Cl)Cl)(c2ccccc2)CC1)c1cccc(OCCN2CCOCC2)c1 (stereo not drawn) [Compound 127]

inhibition at 0.1 µM [1]: 43%
SMILES: O=C(c1ccc(F)cc1)N(CC1=CC(NC(=O)C(Cl)(Cl)Cl)(c2ccccc2)CC1)c1cccc(OCCN2CCOCC2)c1 (stereo not drawn) [Compound 128]

inhibition at 0.1 µM [1]: 70%
SMILES: O=C(c1ccc(Br)cc1)N(CC1=CC(Cc2cccc(Cl)c2)(NC(=O)C(Cl)(Cl)Cl)CC1)c1cccc(OCCN2CCOCC2)c1 (stereo not drawn) [Compound 129]

inhibition at 0.1 µM [1]: 78%
SMILES: O=C(c1ccc(F)c(F)c1)N(CC1=CC(Cc2cccc(Cl)c2)(NC(=O)C(Cl)(Cl)Cl)CC1)c1cccc(OCCN2CCOCC2)c1 (stereo not drawn) [Compound 130]

SMILES: O=C(NC1(Cc2ccccc2)C=C(CNc2cccc(OCCN3CCOCC3)c2)CC1)C(F)(F)F (stereo not drawn) [Compound 131]
inhibition at 10 µM [1]: 25%

inhibition at 1 µM [1]: 51%
SMILES: CC(=O)NC1(Cc2ccccc2)C=C(CN(C(=O)c2ccc(F)cc2)c2cccc(OCCN3CCOCC3)c2)CC1 (stereo not drawn) [Compound 133]

inhibition at 1 µM [1]: 69%
SMILES: O=C(Nc1ccccc1)N(CC1=CC(Cc2ccccc2)(NC(=O)C(F)(F)F)CC1)c1cccc(OCCN2CCOCC2)c1 (stereo not drawn) [Compound 134]

SMILES: O=C(Nc1ccccc1)N(CC1=CC(Cc2ccccc2)(NC(=O)C(Cl)(Cl)Cl)CC1)c1cccc(OCC[N+]2([O-])CCOCC2)c1 (stereo not drawn) [Compound 136]
inhibition at 1 µM [1]: 57%

inhibition at 1 µM [1]: 50%
SMILES: O=C(c1ccc(Br)cc1)N(CC1=CC(Cc2ccccc2)(NC(=O)C(Cl)(Cl)Cl)CC1)c1cccc(OCC[N+]2([O-])CCOCC2)c1 (stereo not drawn) [Compound 137]

SMILES: O=C(c1ccc(-c2ccccc2)cc1)N(CC1=CC(Cc2ccccc2)(NC(=O)C(Cl)(Cl)Cl)CC1)c1cccc(OCCN2CCOCC2)c1 (stereo not drawn) [Compound 1407]
inhibition at 1 µM [1]: 58%

From US5972939A, “Cyclopentene derivatives useful as antagonists of the motilin receptor” (Ortho-McNeil Pharmaceutical, Inc., priority 1998, dated 1999)
